Measured values from paper PMC7696167 (Pharmaceutics, 2020).

Tests used:
[1] = tested on: P-glycoprotein 1 (P-gp, MDR1 or ABCB1) efflux pump; parameters: method as in PMID 20699410; conditions: cited from earlier work
[2] = tested on: CYP2B6; parameters: method as in PMID 18048486; conditions: cited from earlier work
[3] = Population pharmacokinetic model of oral roscovitine and metabolite M3, first dose, ROSCO-CF trial
[4] = tested on: CYP3A4; parameters: method as in PMID 18048486; conditions: cited from earlier work
[5] = population estimate, adult CF patients, oral
[6] = population estimate, covariate effect

For `CC[C@H](CO)Nc1nc(NCc2ccccc2)c2ncn(C(C)C)c2n1` [roscovitine, (R)-roscovitine], which “substrate for P-glycoprotein 1 efflux pump” value [1] is on record?
The value was “substrate”.

What about the “substrate for CYP2B6” value [2] of the same molecule?
The value was “substrate”.

And the “rate of absorption in patients treated with PPIs” value ([3]; oral roscovitine, adult CF patients)?
The value was “slower rate of absorption”.

What about the “CV1: coefficient of variation of first inverse Gaussian absorption function” value ([3]; population estimate) of the same molecule?
Its value is 0.542.

And the “CV2: coefficient of variation of second inverse Gaussian absorption function” value ([3]; population estimate)?
Its value is 0.354.

And the “k12: distribution rate to the peripheral compartment” value ([3]; population estimate)?
Its value is 1.82 h⁻¹.

What about the “k21: distribution rate from the peripheral compartment” value ([3]; population estimate) of the same molecule?
Its value is 0.768 h⁻¹.

And the “kmet: systemic conversion rate of roscovitine in its carboxylate metabolite M3” value ([3]; population estimate)?
The value was 2.07 h⁻¹.

And the “T1max: time at which the first inverse Gaussian absorption function reaches its maximum” value [3, 5]?
The value was 0.676 h.

What about the “dT2max (T2max = T1max + dT2max), inverse Gaussian absorption parameter” value [3, 5] of the same molecule?
The value was 1.04 h.

What about the “π1: weight associated with the first input fraction” value [3, 5] of the same molecule?
The value was 0.285.

And the “D50: oral dose of roscovitine for which Fdose is 50%” value ([3]; population estimate, adult CF patients, oral 200-800 mg)?
The value was 1190 µmol.

What about the “β (PPI = 1) on T1max: coefficient for modification of T1max in patients taking PPI” value [3, 6] of the same molecule?
The value was 0.680.

What about the “β height (cm) on V: coefficient for the effect of height on V/F” value [3, 6] of the same molecule?
The value was 6.47.

And the “V/F: apparent volume of the central compartment after oral administration” value ([3]; population estimate, single parameter common to roscovitine and M3, reference height 170 cm)?
Its value is 62.2 L.

What about the “substrate for CYP3A4” value [4] of the same molecule?
Its value is “substrate”.

With `CC[C@@H](Nc1nc(NCc2ccccc2)c2ncn(C(C)C)c2n1)C(=O)O` [M3] as the molecule, how does the “ke: elimination rate of the metabolite” value ([3]; population estimate) read?
Its value is 2.58 h⁻¹.
